Experimental data taken from patent publication US20200207734A1, “HETEROCYCLIC COMPOUND AND USE THEREOF” (Takeda Pharmaceutical Company Limited, priority 2017, published 2020).

These molecules were tested against T1, human orexin type 2 receptor (Homo sapiens, UniProt O43614) (assay: Measurement of orexin type 2 receptor agonist activity (calcium fluorescence, CHO cells expressing hOX2R)). Conditions: test compound 3 μM; CHO cells expressing human OX2 receptor; DMSO = 0%, orexin A (human) = 100%.
T1 construct: human orexin type 2 receptor cDNA was inserted into pcDNA3.1(+) plasmid vector (Invitrogen); expressed in transfected cells
T1 sequence (O43614 1-444): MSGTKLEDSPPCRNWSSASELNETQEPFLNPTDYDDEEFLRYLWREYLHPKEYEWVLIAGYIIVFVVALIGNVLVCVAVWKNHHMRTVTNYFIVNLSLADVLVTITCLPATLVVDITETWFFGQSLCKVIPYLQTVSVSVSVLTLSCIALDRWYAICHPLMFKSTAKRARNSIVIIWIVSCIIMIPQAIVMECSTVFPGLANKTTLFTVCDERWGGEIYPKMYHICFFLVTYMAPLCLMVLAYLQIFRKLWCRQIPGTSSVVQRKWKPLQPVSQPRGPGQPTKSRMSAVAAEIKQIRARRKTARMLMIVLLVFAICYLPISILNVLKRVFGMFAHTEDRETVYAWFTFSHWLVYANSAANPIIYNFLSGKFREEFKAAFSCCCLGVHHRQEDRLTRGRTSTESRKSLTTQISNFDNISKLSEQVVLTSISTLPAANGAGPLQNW
Type: cell-based
Description: To obtain a cell clone stably expressing human orexin type 2 receptor, human orexin type 2 receptor cDNA was inserted into pcDNA3.1(+) plasmid vector (Invitrogen), and a plasmid DNA for expression of human orexin type 2 receptor (pcDNA3.1(+)/hOX2R) was cloned. The plasmid DNA was introduced into CHO-dhfr cell by an electroporation method, and human orexin type 2 receptor expressing clone cells were obtained by limiting dilution method by using G418 drug resistance as a selection marker.
CHO cells forcibly expressing human OX2 receptor were seeded in each well of 384 well black transparent bottom plate (BD Falcon) at 7,500 cells/well, and cultured for one day in a 5% CO2 incubator at 37° C. After removal of the medium in the cell plate, assay buffer A containing a calcium indicator (HBSS (Thermo Fisher Scientific), 20 mM HEPES (Thermo Fisher Scientific), 0.1% BSA (Wako Pure Chemical Industries, Ltd. or Sigma-Aldrich), 2.5 μg/mL Fluo-4 AM (DOJINDO Chemical), 0.08% Pluronic F127 (DOJINDO Chemical), 1.25 mM probenecid (DOJINDO Chemical)) was added at 30 μL/well. The plate was stood for 30 min in a 5% CO2 incubator at 37° C., and further stood at room temperature for 30 min. A test compound prepared by diluting with assay buffer B (HBSS, 20 mM HEPES, 0.1% BSA) was added at 10 μL/well, and the fluorescence value was measured by FDSSμCELL (Hamamatsu Photonics K.K.) every one sec for 1 min, and thereafter every two sec for 1 min 40 sec. The activity (%) of the test compound was calculated assuming that variation in the fluorescence value when DMSO was added instead of the test compound was 0%, and variation in the fluorescence value when orexin A (human) (PEPTIDE INSTITUTE, INC.) was added at the final concentration of 10 nM was 100%.

Structure (SMILES)	OX2R agonist activity (3 μM, %) [%]
CCNC(=O)N1CCC[C@H](NS(C)(=O)=O)[C@@H]1Cc1cccc(Cc2ccccc2)c1 (relative stereo) [Example 1, cis-2-(3-benzylbenzyl)-N-ethyl-3-((methylsulfonyl)amino)piperidine-1-carboxamide]	81
CCNC(=O)N1CCC[C@H](NS(C)(=O)=O)[C@@H]1Cc1cccc(Cc2cccc(C)c2)c1 (relative stereo) [Example 2, cis-N-ethyl-2-(3-(3-methylbenzyl)benzyl)-3-((methylsulfonyl)amino)piperidine-1-carboxamide]	90
CCNC(=O)N1CCC[C@H](NS(C)(=O)=O)[C@@H]1Cc1cccc(-c2ccccc2)c1 (relative stereo) [Example 3, cis-2-(biphenyl-3-ylmethyl)-N-ethyl-3-((methylsulfonyl)amino)piperidine-1-carboxamide]	101
CCNC(=O)N1CCC[C@H](NS(C)(=O)=O)[C@@H]1Cc1cccc(OC2CCCCC2)c1 (relative stereo) [Example 7, cis-2-(3-(cyclohexyloxy)benzyl)-N-ethyl-3-((methylsulfonyl)amino)piperidine-1-carboxamide]	62
CCNC(=O)N1CCC[C@H](NS(C)(=O)=O)[C@@H]1Cc1cccc(Oc2ccccc2)c1 (relative stereo) [Example 10, cis-N-ethyl-3-((methylsulfonyl)amino)-2-(3-phenoxybenzyl)piperidine-1-carboxamide]	91
COC(=O)N1CCC[C@H](NS(C)(=O)=O)[C@@H]1Cc1cccc(-c2ccccc2)c1 (relative stereo) [Example 11, methyl cis-2-(biphenyl-3-ylmethyl)-3-((methylsulfonyl)amino)piperidine-1-carboxylate]	80
COC(=O)N1CCC[C@H](NS(C)(=O)=O)[C@@H]1Cc1cccc(-c2cccc(F)c2)c1 (relative stereo) [Example 14, methyl cis-2-((3′-fluorobiphenyl-3-yl)methyl)-3-((methylsulfonyl)amino)piperidine-1-carboxylate]	82
CCNC(=O)N1CCC[C@H](NS(C)(=O)=O)[C@@H]1Cc1cccc(O[Si](C(C)C)(C(C)C)C(C)C)c1 (relative stereo) [Example 17, cis-N-ethyl-3-((methylsulfonyl)amino)-2-(3-((triisopropylsilyl)oxy)benzyl)piperidine-1-carboxamide]	29
CC(=O)N1CCC[C@H](NS(C)(=O)=O)[C@@H]1Cc1cccc(-c2ccccc2)c1 (relative stereo) [Example 22, N-(cis-1-acetyl-2-(biphenyl-3-ylmethyl)piperidin-3-yl)methanesulfonamide]	60
COC(=O)N1CCC[C@H](NS(C)(=O)=O)[C@@H]1Cc1cccc(N2CCCC2)c1 (relative stereo) [Example 27, methyl cis-3-((methylsulfonyl)amino)-2-(3-(pyrrolidin-1-yl)benzyl)piperidine-1-carboxylate]	66
CCOC(=O)N1CCC[C@H](NS(C)(=O)=O)[C@@H]1Cc1cccc(-c2ccccc2)c1 (relative stereo) [Example 29, ethyl cis-2-(biphenyl-3-ylmethyl)-3-((methylsulfonyl)amino)piperidine-1-carboxylate]	98
CCNC(=O)N1CCC[C@H](NS(C)(=O)=O)[C@@H]1Cc1cccc(-c2ccc(C(F)(F)F)cc2)c1 (relative stereo) [Example 35, cis-N-ethyl-3-((methylsulfonyl)amino)-2-((4′-(trifluoromethyl)biphenyl-3-yl)methyl)piperidine-1-carboxamide]	41
CCOC(=O)N1CCC[C@H](NS(C)(=O)=O)[C@@H]1Cc1cccc(-c2ccccc2)n1 (relative stereo) [Example 38, ethyl cis-3-((methylsulfonyl)amino)-2-((6-phenylpyridin-2-yl)methyl)piperidine-1-carboxylate]	75
COC(=O)N1CCC[C@H](NS(C)(=O)=O)[C@@H]1Cc1ccc(F)c(-c2ccccc2)c1 (relative stereo) [Example 41, methyl cis-2-((6-fluorobiphenyl-3-yl)methyl)-3-((methylsulfonyl)amino)piperidine-1-carboxylate]	67
CC(C)OC(=O)N1CCC[C@H](NS(C)(=O)=O)[C@@H]1Cc1cccc(-c2ccccc2)c1 (relative stereo) [Example 50, isopropyl cis-2-(biphenyl-3-ylmethyl)-3-((methylsulfonyl)amino)piperidine-1-carboxylate]	97
COC(=O)N1CCC[C@H](NS(C)(=O)=O)[C@@H]1Cc1cccc(-c2ccc3c(cnn3C)c2)c1 (relative stereo) [Example 53, methyl cis-2-(3-(1-methyl-1H-indazol-5-yl)benzyl)-3-((methylsulfonyl)amino)piperidine-1-carboxylate]	72
C=C(C)c1cccc(C[C@H]2[C@@H](NS(C)(=O)=O)CCCN2C(=O)OC)c1 (relative stereo) [Example 55, methyl cis-3-((methylsulfonyl)amino)-2-(3-(prop-1-en-2-yl)benzyl)piperidlne-1-carboxylate]	84
COC(=O)N1CCC[C@H](NS(C)(=O)=O)[C@@H]1Cc1cccc(C2CCC2)c1 (relative stereo) [Example 60, methyl cis-2-(3-cyclobutylbenzyl)-3-((methylsulfonyl)amino)piperidine-1-carboxylate]	26
COC(=O)N1CC[C@H](NS(C)(=O)=O)[C@@H]1Cc1cccc(-c2ccccc2)c1 (relative stereo) [Example 61, methyl cis-2-(biphenyl-3-ylmethyl)-3-((methylsulfonyl)amino)pyrrolidine-1-carboxylate]	74
CCNC(=O)N1CCC[C@H](NS(C)(=O)=O)[C@@H]1Cc1ccccc1Oc1ccccc1 (relative stereo) [Example 62, cis-N-ethyl-3-((methylsulfonyl)amino)-2-(2-phenoxybenzyl)piperidine-1-carboxamide]	93
CCNC(=O)N1CCC[C@H](NS(C)(=O)=O)[C@@H]1Cc1ccc(Oc2ccccc2)cc1 (relative stereo) [Example 63, cis-N-ethyl-3-((methylsulfonyl)amino)-2-(4-phenoxybenzyl)piperidine-1-carboxamide]	24
CC(C)OC(=O)N1CCC[C@H](NS(C)(=O)=O)[C@@H]1Cc1cccc(-c2ccccc2)n1 (relative stereo) [Example 64, isopropyl cis-3-((methylsulfonyl)amino)-2-((6-phenylpyridin-2-yl)methyl)piperidine-1-carboxylate]	96
CC(C)OC(=O)N1CC[C@H](NS(C)(=O)=O)[C@@H]1Cc1cccc(-c2ccccc2)c1 (relative stereo) [Example 74, isopropyl cis-2-(biphenyl-3-ylmethyl)-3-((methylsulfonyl)amino)pyrrolidine-1-carboxylate]	104
CC(C)OC(=O)N1CCC[C@H](NS(C)(=O)=O)[C@@H]1Cc1cccc2c1oc1ccccc12 (relative stereo) [Example 78, isopropyl cis-2-(dibenzo[b,d]furan-4-ylmethyl)-3-((methylsulfonyl)amino)piperidine-1-carboxylate]	35
CC(C)OC(=O)N1CCC[C@H](NS(C)(=O)=O)[C@@H]1Cc1csc(-c2ccccc2)n1 (relative stereo) [Example 89, isopropyl cis-3-((methylsulfonyl)amino)-2-((2-phenyl-1,3-thiazol-4-yl)methyl)piperidine-1-carboxylate]	96
